Among the data in article PMC10741476, “The Allosteric Regulation of Β-Ureidopropionase Depends on Fine-Tuned Stability of Active-Site Loops and Subunit Interfaces” (Biomolecules, 2023) are Ki and Km values, retold here.

The target in data set [1] is T1, human β-ureidopropionase (HsβUP) (Homo sapiens, UniProt Q9UBR1).
T1 construct: gene UPB1
T1 sequence (Q9UBR1 1-384): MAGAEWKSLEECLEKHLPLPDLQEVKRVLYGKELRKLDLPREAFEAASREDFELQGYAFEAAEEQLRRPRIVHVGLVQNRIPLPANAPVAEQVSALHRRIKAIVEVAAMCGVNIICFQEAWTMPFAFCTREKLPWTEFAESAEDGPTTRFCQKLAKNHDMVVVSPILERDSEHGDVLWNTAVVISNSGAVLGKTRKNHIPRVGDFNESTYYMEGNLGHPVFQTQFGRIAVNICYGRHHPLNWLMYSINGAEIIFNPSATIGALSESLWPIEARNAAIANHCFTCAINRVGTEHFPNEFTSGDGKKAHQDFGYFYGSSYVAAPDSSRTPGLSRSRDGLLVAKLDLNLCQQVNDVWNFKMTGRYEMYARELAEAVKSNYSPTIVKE
Description: discontinuous OPA fluorescence assay of beta-alanine formation from NCβA. Format: biochemical. The text has this: discontinuous OPA fluorescence assay of beta-alanine formation from NCβA on human β-ureidopropionase (HsβUP)

Substrate in data set [2]: NC(=O)NCCC(=O)O
Described as above. Format: biochemical, Homo sapiens. The settings on record: pH 6.5, 37 °C, 100 mM MES, 50 mM NaCl.

Where two headings read alike, the source gives them in different places. Residues, ends and D or L forms follow the SMILES beside them.

For orientation: Ki means the dissociation constant of the complex between target and ligand, obtained from inhibition or displacement. Low readings indicate a stronger hold on the target, high ones a looser hold on the target. In data set [1], `CC(C)(N)C(=O)O` [2-aminoisobutyric acid] gave a Ki of 151 µM.

`NCC(=O)NCC(=O)O` [glycyl-glycine] (H-Gly-Gly-OH) returned a Ki in data set [1] (pH 6.5, 37 °C, 100 mM MES, 50 mM NaCl, competitive mode assumed (data best fitted as non-competitive), substrate NCβA) of 237 µM.

In the case of `CC(C)C(=O)O` [isobutyric acid], affinity in data set [1] was put at a Ki of 2270 µM.

B1: human β-ureidopropionase (HsβUP) (Homo sapiens) (protein)
chain: MAGAEWKSLEECLEKHLPLPDLQEVKRVLYGKELRKLDLPREAFEAASREDFELQGYAFEAAEEQLRRPRIVHVGLVQNRIPLPANAPVAEQVSALHRRIKAIVEVAAMCGVNIICFQEAWTMPFAFCTREKLPWTEFAESAEDGPTTRFCQKLAKNHDMVVVSPILERDSEHGDVLWNTAVVISNSGAVLGKTRKNHIPRVGDFNESTYYMEGNLGHPVFQTQFGRIAVNICYGRHHPLNWLMYSINGAEIIFNPSATIGALSESLWPIEARNAAIANHCFTCAINRVGTEHFPNEFTSGDGKKAHQDFGYFYGSSYVAAPDSSRTPGLSRSRDGLLVAKLDLNLCQQVNDVWNFKMTGRYEMYARELAEAVKSNYSPTIVKE
What is called Km is the substrate concentration at which the rate is half of its maximum. In the case of B1, the Km in data set [2] worked out at 101.4 µM.
